Reference: patent US8546376B2, “Pharmaceutical compounds” (Almac Discovery Limited, priority 2009, dated 2013)
pIC50: −log10 of the molar value.

Experiments:
Format in all cases: biochemical
AKT1 = molecular target: T1, AKT1 (Homo sapiens, UniProt P31749); test: AKT Kinase Assay (IMAP fluorescent polarisation) vs AKT1; conditions: activated AKT1, FAM Crosstide substrate
T1 construct: purchased SignalChem
Experimental: (§1) Testing of the compounds was performed using an AKT Kinase Assay:
(§2) Activated AKT isoforms 1, 2 and 3 were assayed utilising a 5′ FAM Crosstide (Seq. GRPRTSSFAEG-OH). The extent of kinase phosphorylation was determined by fluorescent polarisation using IMAP progressive binding reagent, which introduces binding beads which allow the reagent to specifically bind to phosphate residues via covalent co-ordination complex bonds.
(§3) iMAP binding solution stops Crosstide/kinase interaction and specifically binds phosphorylated substrates. The degree of phosphorylation is determined by fluorescent polarisation (excitation 485 nm; emission 528 nm) or the reduction in speed of rotation of the excited substrate.
(§4) The following materials were used in the assay: • a) Activated AKT isoforms (SignalChem.) dissolved in Complete Reaction buffer at a pre-determined concentration selected so that the assay was carried out in the linear range. • b) AKT substrate peptide: FAM Crosstide (R7110) Molecular Devices, diluted in complete reaction buffer. • c) iMAP Progressive Screening Express Kit (R8127) Molecular Devices • d) Complete Reaction Buffer containing 0.1% BSA, 10 mM Tris-HCl, 10 mM MgCl2, 0.05% NaN3 and 0.01% phosphate free BSA, 1 mM DTT • e) Progressive Binding Solution containing 75% Buffer A, 25% Buffer B and low volume Binding Reagent which contains the binding entity for the assay • f) ATP diluted in complete reaction buffer • g) Black polystyrene 384 well assay plates (Nunc). • h) Biotek Synergy 4 Hybrid Plate reader.
(§5) 5 μl of test compound was dissolved in DMSO (Sigma Aldrich) and serially diluted in complete reaction buffer to give a fourteen point half log dose response and plated into 384 well black plates. The compound was incubated at room temperature with activated AKT isoform (5 μl) at the pre-determined concentration, for 45 minutes.
(§6) 2.5 μl of ATP solution mixed with 2.5 μl of AKT substrate peptide (FAM Crosstide (R7110) Molecular Devices) were dispensed into each well and the plate centrifuged at 1000 rpm for 20 seconds to ensure homogenous mixing of reagents. The reaction mix was incubated in the dark for one hour at room temperature.
(§7) The kinase reaction was stopped by the addition of Progressive Binding Solution and the mixture allowed to equilibrate for one hour in the dark, at room temperature.
(§8) The fluorescent polarisation generated in each well was determined using a […] Synergy 4 Hybrid plate reader. In brief, each reaction solution was excited at 485 nm with the emission measured at 528 nm in both the parallel and perpendicular pathway.
(§9) The polarisation value generated in each well was calculated by Gen5 software (Biotek) and the % inhibition of kinase activity compared to vehicle control was calculated via GraphPad Prism. IC50 values for each compound were calculated by non-linear regression analysis using Prism software.
(§10) All plates were internally controlled by two methods. Firstly, by calculating the signal:noise ratio; based on kinase polarisation without inhibitor and polarisation generated by complete reaction buffer in the absence of activated kinase. Secondly by determining IC50 values generated by known inhibitors of the AKT isoforms.

AKT2 = molecular target: T2, AKT2 (Homo sapiens, UniProt P31751); test: AKT Kinase Assay (IMAP fluorescent polarisation) vs AKT2; conditions: activated AKT2, FAM Crosstide substrate
T2 construct: purchased SignalChem
T2 sequence (P31751 whole entry): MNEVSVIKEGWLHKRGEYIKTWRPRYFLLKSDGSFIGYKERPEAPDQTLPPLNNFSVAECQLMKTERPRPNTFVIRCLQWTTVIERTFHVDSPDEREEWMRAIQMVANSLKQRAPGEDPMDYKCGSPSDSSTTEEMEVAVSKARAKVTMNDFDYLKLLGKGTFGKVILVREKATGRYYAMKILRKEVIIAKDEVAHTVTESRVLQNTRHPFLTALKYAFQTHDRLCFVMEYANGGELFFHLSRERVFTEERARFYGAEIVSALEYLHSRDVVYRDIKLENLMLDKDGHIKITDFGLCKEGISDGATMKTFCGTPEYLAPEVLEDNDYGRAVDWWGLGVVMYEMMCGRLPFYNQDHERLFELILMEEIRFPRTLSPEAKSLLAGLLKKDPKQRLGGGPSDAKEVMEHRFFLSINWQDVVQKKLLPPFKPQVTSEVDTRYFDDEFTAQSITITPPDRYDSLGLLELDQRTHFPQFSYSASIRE
Experimental: as §1, §2, §3, §4, §5, §6, §7, §8, §9, §10

AKT3 = molecular target: T3, AKT3 (Homo sapiens, UniProt Q9Y243); test: AKT Kinase Assay (IMAP fluorescent polarisation) vs AKT3; conditions: activated AKT3, FAM Crosstide substrate
T3 construct: purchased SignalChem
T3 sequence (Q9Y243 whole entry): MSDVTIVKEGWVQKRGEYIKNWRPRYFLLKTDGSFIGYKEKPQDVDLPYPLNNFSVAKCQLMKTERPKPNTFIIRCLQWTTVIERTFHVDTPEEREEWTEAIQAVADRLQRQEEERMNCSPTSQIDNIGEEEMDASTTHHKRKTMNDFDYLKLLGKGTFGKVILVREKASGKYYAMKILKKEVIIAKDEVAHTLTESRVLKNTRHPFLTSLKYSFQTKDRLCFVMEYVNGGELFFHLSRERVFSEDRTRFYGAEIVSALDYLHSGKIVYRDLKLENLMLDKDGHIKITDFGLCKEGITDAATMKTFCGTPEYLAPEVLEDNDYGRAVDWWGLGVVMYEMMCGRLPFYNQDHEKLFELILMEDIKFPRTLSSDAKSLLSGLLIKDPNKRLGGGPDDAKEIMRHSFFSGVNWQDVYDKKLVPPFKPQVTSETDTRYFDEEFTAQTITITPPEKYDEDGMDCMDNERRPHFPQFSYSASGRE
Experimental: as §1, §2, §3, §4, §5, §6, §7, §8, §9, §10

T1 sequence (P31749 whole entry): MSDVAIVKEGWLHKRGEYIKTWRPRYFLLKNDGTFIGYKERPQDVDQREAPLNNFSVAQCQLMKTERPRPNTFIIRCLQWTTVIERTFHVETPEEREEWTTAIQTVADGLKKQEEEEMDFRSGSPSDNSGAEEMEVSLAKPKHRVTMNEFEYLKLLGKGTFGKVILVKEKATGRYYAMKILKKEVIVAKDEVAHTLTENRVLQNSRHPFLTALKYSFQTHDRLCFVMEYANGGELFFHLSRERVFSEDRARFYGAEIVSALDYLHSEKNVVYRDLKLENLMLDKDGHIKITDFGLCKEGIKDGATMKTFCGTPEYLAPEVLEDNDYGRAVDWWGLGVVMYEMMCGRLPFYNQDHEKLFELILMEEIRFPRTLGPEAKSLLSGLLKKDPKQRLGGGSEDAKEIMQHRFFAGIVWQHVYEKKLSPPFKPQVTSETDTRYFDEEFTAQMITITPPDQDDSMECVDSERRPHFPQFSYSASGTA

Compound: NC1(c2ccc(-c3c(-c4ccccc4)oc4ccc(F)cc4c3=O)cc2)CCC1 [Example 1, 3-[4-(1-Amino-cyclobutyl)-phenyl]-6-fluoro-2-phenyl-chromen-4-one]
- pIC50 (AKT1): 5.00 to 6.00
- pIC50 (AKT2): 5.00 to 6.00
- pIC50 (AKT3): < 5.00

Compound: NC1(c2ccc(-c3c(-c4ccccc4)oc4c(F)cccc4c3=O)cc2)CCC1 [Example 2, 3-[4-(1-Amino-cyclobutyl)-phenyl]-8-fluoro-2-phenyl-chromen-4-one]
- pIC50 (AKT1): ≥ 6.00
- pIC50 (AKT2): 5.00 to 6.00
- pIC50 (AKT3): < 5.00

Compound: NC1(c2ccc(-c3c(-c4ccccc4)oc4cccc(F)c4c3=O)cc2)CCC1 [Example 3, 3-[4-(1-Amino-cyclobutyl)-phenyl]-5-fluoro-2-phenyl-chromen-4-one]
- pIC50 (AKT1): 5.00 to 6.00
- pIC50 (AKT2): 5.00 to 6.00
- pIC50 (AKT3): < 5.00

Compound: COc1ccc2oc(-c3ccccc3)c(-c3ccc(C4(N)CCC4)cc3)c(=O)c2c1 [Example 5, 3-[4-(1-Amino-cyclobutyl)-phenyl]-6-methoxy-2-phenyl-chromen-4-one]
- pIC50 (AKT1): 5.00 to 6.00
- pIC50 (AKT2): 5.00 to 6.00
- pIC50 (AKT3): < 5.00

Compound: COc1cc2c(=O)c(-c3ccc(C4(N)CCC4)cc3)c(-c3ccccc3)oc2cc1C [Example 6, 3-[4-(1-Amino-cyclobutyl)-phenyl]-6-methoxy-7-methyl-2-phenyl-chromen-4-one]
- pIC50 (AKT1): < 5.00
- pIC50 (AKT2): 5.00 to 6.00
- pIC50 (AKT3): < 5.00

Compound: COc1cc2oc(-c3ccccc3)c(-c3ccc(C4(N)CCC4)cc3)c(=O)c2cc1C [Example 7, 3-[4-(1-Amino-cyclobutyl)-phenyl]-7-methoxy-6-methyl-2-phenyl-chromen-4-one]
- pIC50 (AKT1): 5.00 to 6.00
- pIC50 (AKT2): 5.00 to 6.00
- pIC50 (AKT3): < 5.00

Compound: NC1(c2ccc(-c3c(-c4ccccc4)oc4cc5c(cc4c3=O)OCCO5)cc2)CCC1 [Example 8, 7-[4-(1-Amino-cyclobutyl)-phenyl]-6-Phenyl-2,3-dihydro-1,4,5-trioxa-anthracen-8-one]
- pIC50 (AKT1): 5.00 to 6.00
- pIC50 (AKT2): 5.00 to 6.00
- pIC50 (AKT3): < 5.00

Compound: COc1ccc2c(=O)c(-c3ccc(C4(N)CCC4)cc3)c(-c3ccccc3)oc2c1Br [Example 9, 3-[4-(1-Amino-cyclobutyl)-phenyl]-8-bromo-7-methoxy-2-phenyl-chromen-4-one]
- pIC50 (AKT1): ≥ 6.00
- pIC50 (AKT2): ≥ 6.00
- pIC50 (AKT3): 5.00 to 6.00

Compound: COc1cc2oc(-c3ccccc3)c(-c3ccc(C4(N)CCC4)cc3)c(=O)c2cc1C(N)=O [Example 10, 3-[4-(1-Amino-cyclobutyl)-phenyl]-7-methoxy-4-oxo-2-phenyl-4H-chromene-6-carboxylic acid amide]
- pIC50 (AKT1): 5.00 to 6.00
- pIC50 (AKT2): ≥ 6.00
- pIC50 (AKT3): 5.00 to 6.00

Compound: COc1cc2oc(-c3ccccc3)c(-c3ccc(C4(N)CCC4)cc3)c(=O)c2cc1C#N [Example 11, 3-[4-(1-Amino-cyclobutyl)-phenyl]-7-methoxy-4-oxo-2-phenyl-4H-chromene-6-carbonitrile]
- pIC50 (AKT1): 5.00 to 6.00
- pIC50 (AKT2): 5.00 to 6.00
- pIC50 (AKT3): < 5.00

Compound: COc1ccc2c(=O)c(-c3ccc(C4(N)CCC4)cc3)c(-c3ccccc3)oc2c1C#N [Example 12, 3-[4-(1-Amino-cyclobutyl)-phenyl]-7-methoxy-4-oxo-2-phenyl-4H-chromene-8-carbonitrile]
- pIC50 (AKT1): 5.00 to 6.00
- pIC50 (AKT2): ≥ 6.00
- pIC50 (AKT3): 5.00 to 6.00

Compound: NC1(c2ccc(-c3c(-c4ccccc4)oc4cc(Br)ccc4c3=O)cc2)CCC1 [Example 13, 3-[4-(1-Amino-cyclobutyl)-phenyl]-2-phenyl-7-bromo-chromen-4-one]
- pIC50 (AKT1): 5.00 to 6.00
- pIC50 (AKT2): 5.00 to 6.00
- pIC50 (AKT3): < 5.00

Compound: COc1ccc2c(=O)c(-c3ccc(C4(N)CCC4)cc3)c(-c3ccccc3)oc2c1 [Example 14]
- pIC50 (AKT1): 5.00 to 6.00
- pIC50 (AKT2): 5.00 to 6.00
- pIC50 (AKT3): < 5.00

Compound: COc1cc2oc(-c3ccccc3)c(-c3ccc(C4(N)CCC4)cc3)c(=O)c2cc1OC [Example 15, 3-[4-(1-Amino-cyclobutyl)-phenyl]-6,7-dimethoxy-2-phenyl-chromen-4-one]
- pIC50 (AKT1): 5.00 to 6.00
- pIC50 (AKT2): ≥ 6.00
- pIC50 (AKT3): 5.00 to 6.00
